SMILES strings stand for the structures.

This assay concerns the target T1, fl-KcsA (full-length KcsA) (Streptomyces lividans, UniProt P0A334).
T1 sequence (P0A334 1-160): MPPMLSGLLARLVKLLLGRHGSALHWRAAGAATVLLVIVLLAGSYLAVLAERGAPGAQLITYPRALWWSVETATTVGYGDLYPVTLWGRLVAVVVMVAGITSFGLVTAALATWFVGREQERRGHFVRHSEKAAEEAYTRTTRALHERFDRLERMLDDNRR
Put plainly: SPR, KcsA immobilised on SAM chip. Type of assay: binding. As to conditions: specific blocker; type of constant not given. For orientation: Surface plasmon resonance follows binding to a sensor surface in real time, without labels.

Consider `CCCC[N+](CCCC)(CCCC)CCCC` [TBA], for which the binding affinity result is recorded as “The binding affinity of TBA to KcsA deduced from the present SPR study”.

The values above are taken from PMC10709135 (iScience, 2023).
